Where a name gives a salt, the structure may show the parent alone.
Tests used:
α1a (Rat) = target: T1, α1a (Rat) (Rattus norvegicus, UniProt P43140); experiment: Radioligand binding, displacement of [3H]-prazosin from cloned α1a (rat) expressed in LTK cells; details: [3H]-prazosin 0.2 nM; cloned rat α1a in LTK cell membranes; 25° C., 50 minutes
T1 sequence (P43140 1-466): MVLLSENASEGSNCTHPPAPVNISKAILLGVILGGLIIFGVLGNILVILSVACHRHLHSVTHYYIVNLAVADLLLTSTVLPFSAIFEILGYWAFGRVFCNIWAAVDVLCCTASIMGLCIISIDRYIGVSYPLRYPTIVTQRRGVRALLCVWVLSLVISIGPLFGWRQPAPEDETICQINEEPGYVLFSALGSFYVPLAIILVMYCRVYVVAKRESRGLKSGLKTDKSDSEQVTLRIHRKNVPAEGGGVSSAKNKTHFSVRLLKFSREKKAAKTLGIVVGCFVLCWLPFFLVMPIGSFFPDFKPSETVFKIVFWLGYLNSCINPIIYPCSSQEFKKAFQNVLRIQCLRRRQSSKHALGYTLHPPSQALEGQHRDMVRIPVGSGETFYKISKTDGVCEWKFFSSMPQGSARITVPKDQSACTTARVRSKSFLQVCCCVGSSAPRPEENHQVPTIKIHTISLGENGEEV

α1a (Bovine) = target: T2, α1a (Bovine) (Bos taurus, UniProt P18130); experiment: Radioligand binding, displacement of [3H]-prazosin from cloned α1a (bovine) expressed in LTK cells; details: [3H]-prazosin 0.2 nM; cloned bovine α1a in LTK cell membranes; 25° C., 50 minutes
T2 sequence (P18130 1-466): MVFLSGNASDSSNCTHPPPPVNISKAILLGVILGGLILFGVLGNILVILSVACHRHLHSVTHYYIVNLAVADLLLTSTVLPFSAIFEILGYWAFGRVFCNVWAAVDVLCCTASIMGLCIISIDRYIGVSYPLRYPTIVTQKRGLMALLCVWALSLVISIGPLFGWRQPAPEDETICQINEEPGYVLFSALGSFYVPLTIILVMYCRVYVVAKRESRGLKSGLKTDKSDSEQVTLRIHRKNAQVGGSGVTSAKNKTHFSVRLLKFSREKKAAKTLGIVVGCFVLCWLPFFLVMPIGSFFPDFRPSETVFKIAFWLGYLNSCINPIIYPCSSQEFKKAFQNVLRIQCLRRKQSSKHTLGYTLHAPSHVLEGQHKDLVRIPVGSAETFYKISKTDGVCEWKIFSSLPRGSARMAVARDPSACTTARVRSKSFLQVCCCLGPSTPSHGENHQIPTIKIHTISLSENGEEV

α1d (rat) = target: T3, α1d (rat) (Rattus norvegicus, UniProt P23944); experiment: Radioligand binding, displacement of [3H]-prazosin from cloned α1d (rat) expressed in LTK cells; details: [3H]-prazosin 0.2 nM; cloned rat α1d in LTK cell membranes; 25° C., 50 minutes
T3 sequence (P23944 1-561): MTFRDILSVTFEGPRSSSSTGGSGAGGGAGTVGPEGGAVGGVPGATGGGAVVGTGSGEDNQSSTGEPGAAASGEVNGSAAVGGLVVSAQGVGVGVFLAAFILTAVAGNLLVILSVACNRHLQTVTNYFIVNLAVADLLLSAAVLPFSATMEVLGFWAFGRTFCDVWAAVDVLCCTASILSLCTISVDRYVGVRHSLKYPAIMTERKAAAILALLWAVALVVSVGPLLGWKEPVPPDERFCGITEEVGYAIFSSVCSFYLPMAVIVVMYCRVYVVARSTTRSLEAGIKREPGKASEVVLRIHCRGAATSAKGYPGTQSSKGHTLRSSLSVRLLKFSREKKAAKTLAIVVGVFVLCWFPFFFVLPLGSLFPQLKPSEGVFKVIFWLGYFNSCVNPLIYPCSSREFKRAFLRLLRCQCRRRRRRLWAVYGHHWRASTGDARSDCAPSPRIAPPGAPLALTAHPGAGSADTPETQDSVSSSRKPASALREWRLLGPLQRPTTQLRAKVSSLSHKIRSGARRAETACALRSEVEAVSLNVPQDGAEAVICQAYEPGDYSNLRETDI

α1b (Hamster) = target: T4, α1b (Hamster) (Mesocricetus auratus, UniProt P18841); experiment: Radioligand binding, displacement of [3H]-prazosin from cloned α1b (hamster) expressed in LTK cells; details: [3H]-prazosin 0.2 nM; cloned hamster α1b in LTK cell membranes; 25° C., 50 minutes
T4 sequence (P18841 1-515): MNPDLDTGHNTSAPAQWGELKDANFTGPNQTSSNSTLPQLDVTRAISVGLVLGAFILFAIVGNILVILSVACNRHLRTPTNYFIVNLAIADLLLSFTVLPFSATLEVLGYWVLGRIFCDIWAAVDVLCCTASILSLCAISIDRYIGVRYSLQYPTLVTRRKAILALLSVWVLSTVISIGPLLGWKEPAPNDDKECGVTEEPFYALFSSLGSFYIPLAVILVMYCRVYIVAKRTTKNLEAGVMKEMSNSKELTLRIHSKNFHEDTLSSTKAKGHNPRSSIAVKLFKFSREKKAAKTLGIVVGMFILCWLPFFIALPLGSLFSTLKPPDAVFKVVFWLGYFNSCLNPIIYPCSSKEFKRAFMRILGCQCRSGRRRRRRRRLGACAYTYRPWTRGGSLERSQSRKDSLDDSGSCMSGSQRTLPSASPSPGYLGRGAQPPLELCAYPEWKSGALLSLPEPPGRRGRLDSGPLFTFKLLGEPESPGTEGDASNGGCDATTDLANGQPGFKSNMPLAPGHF

Ki (α1a (Rat)) [nM]	Ki (α1a (Bovine)) [nM]	Ki (α1d (rat)) [nM]	Ki (α1b (Hamster)) [nM]	SMILES
7.37	2.81	5.19	20	COc1cccc([C@H]2CCN(CCCCn3c(=O)[nH]c4c(sc5ncccc54)c3=O)C2)c1 [Example 24, (R)-3-[4-[3-(3-methoxyphenyl)-1-pyrrolidinyl]butyl]pyrido[3',2':4,5]thieno[3,2-d]pyrimidine-2,4(1H,3H)-dione, Dihydrochloride]
134	27	86.4	331	COc1cccc([C@H]2CCN(CCn3c(=O)[nH]c4c(sc5ncccc54)c3=O)C2)c1 [Example 23, (R)-3-[2-[3-(3-methoxyphenyl)-1-pyrrolidinyl]ethyl]pyrido[3',2':4,5]thieno[3,2-d]pyrimidine-2,4(1H,3H)-dione, Dihydrochloride]
9.33	1.67	3.86	5.61	COc1ccccc1[C@@H]1CCN(CCn2c(=O)[nH]c3c(sc4ccccc43)c2=O)C1 [Example 25, (S)-3-[2-[3-(2-methoxyphenyl)-1-pyrrolidinyl]ethyl]-[1]benzothieno[3,2-d]pyrimidine-2,4(1H,3H)-dione Monohydrochloride]
6.79	1.24	3.04	10.7	COc1cccc([C@@H]2CCN(CCn3c(=O)[nH]c4c(sc5ccccc54)c3=O)C2)c1 [Example 26, (S)-3-[2-[3-(3-methoxyphenyl)-1-pyrrolidinyl]ethyl]-[1]benzothieno[3,2-d]pyrimidine-2,4(1H,3H)-dione, Monohydrochloride]
1.98	0.69	2.02	4.02	COc1ccccc1[C@@H]1CCN(CCCCn2c(=O)[nH]c3c(sc4cccnc43)c2=O)C1 [Example 29, (S)-3-[4-[3-(2-methoxyphenyl)-1-pyrrolidinyl]butyl]pyrido[2',3':4,5]thieno[3,2-d]pyrimidine-2,4(1H,3H)-dione, Dihydrochloride]

Further lines, the molecule ahead of its results:

SMILES	Ki (α1a (Rat)) [nM]	Ki (α1a (Bovine)) [nM]	Ki (α1d (rat)) [nM]	Ki (α1b (Hamster)) [nM]
COc1ccc2sc3c(=O)n(CCCCN4CC[C@H](c5ccccc5OC)C4)c(=O)[nH]c3c2n1 [Example 11, (R)-8-methoxy-3-[4-[3-(2-methoxyphenyl)-1-pyrrolidinyl]butyl]pyrido-[2',3':4,5]thieno[3,2-d]pyrimidine-2,4(1H,3H)-dione, Dihydrochloride]	0.67	0.11	0.12	1.79
COc1ccccc1[C@H]1CCN(CCCn2c(=O)[nH]c3c(sc4cccnc43)c2=O)C1 [Example 5, (R)-3-[3-[3-(2-Methoxyphenyl)-1-pyrrolidinyl]propyl]pyrido[2',3':4,5]thieno[3,2-d]pyrimidine-2,4(1H,3H)-dione Dihydrochloride]	2.05	1.25	2.25	9.68
COc1ccccc1[C@H]1CCN(CCn2c(=O)[nH]c3c(sc4cccnc43)c2=O)C1 [Example 4, (R)-3-[2-[3-(2-Methoxyphenyl)-1-pyrrolidinyl]ethyl]pyrido[2',3':4,5]thieno[3,2-d]pyrimidine-2,4(1H,3H)-dione bis(hydrochloride) Salt]	2.61	0.83	2.38	1.52
COc1ccccc1[C@H]1CCN(CCCCN2C(=O)COc3ccccc32)C1 [Example 18, (R)-4-[4-[3-(2-methoxyphenyl)-1-pyrrolidinyl]butyl]-2H-1,4-benzoxazin-3(4H)-one, Monohydrochloride]	0.46	0.21	0.66	1.02
COc1ccccc1[C@H]1CCN(CCCCn2c(=O)[nH]c3c(sc4ccccc43)c2=O)C1 [Example 2, (R)-3-[4-[3-(2-Methoxyphenyl)-1-pyrrolidinyl]butyl]-[1]benzothieno[3,2-d]pyrimidine-2,4(1H,3H)-dione Monohydrochloride]	0.18	0.02	0.03	0.62
COc1ccccc1[C@H]1CCN(CCCCn2c(=O)[nH]c3c(sc4ncccc43)c2=O)C1 [Example 8, (R)-3-[4-[3-(2-Methoxyphenyl)-1-pyrrolidinyl]butyl]pyrido[3',2':4,5]thieno[3,2-d]pyrimidine-2,4(1H,3H)-dione, Dihydrochloride]	0.12	0.06	0.09	1.76
COc1ccccc1[C@H]1CCN(CCCCn2c(=O)[nH]c3c(sc4ccc(Cl)nc43)c2=O)C1 [Example 10, (R)-8-chloro-3-[4-[3-(2-methoxyphenyl)-1-pyrrolidinyl]butyl]pyrido[2',3':4,5]thieno[3,2-d]pyrimidine-2,4(1H,3H)-dione, Dihydrochloride]	0.22	0.05	0.06	1.18
COc1ccccc1[C@H]1CCN(CCCCCn2c(=O)[nH]c3c(sc4ncccc43)c2=O)C1 [Example 9, (R)-3-[5-[3-(2-methoxyphenyl)-1-pyrrolidinyl]pentyl]pyrido[3',2':4,5]thieno[3,2-d]pyrimidine-2,4(1H,3H)-dione, Dihydrochloride]	3.3	0.32	2.35	7.38
COc1cccc([C@H]2CCN(CCCCn3c(=O)[nH]c4c(sc5cccnc54)c3=O)C2)c1 [Example 22, (R)-3-[4-[3-(3-methoxyphenyl)-1-pyrrolidinyl]butyl]pyrido[2',3':4,5]thieno[3,2-d]pyrimidine-2,4(1H,3H)-dione, Dihydrochloride]	5.11	1.52	11.5	18.4
COc1cnc2sc3c(=O)n(CCCCN4CC[C@H](c5ccccc5OC)C4)c(=O)[nH]c3c2n1 [Example 15, (R)-8-Methoxy-3-[4-[3-(2-methoxyphenyl)-1-pyrrolidinyl]butyl]pyrazino-[2',3':4,5]thieno[3,2-d]pyrimidine-2,4(1H,3H)-dione, Dihydrochloride]	0.26	0.06	0.15	2.37
COc1ccccc1[C@H]1CCN(CCCCn2c(=O)[nH]c3c(sc4ncc(-c5ccccc5)nc43)c2=O)C1 [Example 16, (R)-8-phenyl-3-[4-[3-(2-methoxyphenyl)-1-pyrrolidinyl]butyl]pyrazino[2',3':4,5]thieno[3,2-d]pyrimidine-2,4(1H,3H)-dione, Dihydrochloride]	1.61	0.09	0.64	11.8
COc1ccccc1[C@H]1CCN(CCCCCn2c(=O)[nH]c3c(sc4cccnc43)c2=O)C1 [Example 7, (R)-3-[5-[3-(2-Methoxyphenyl)-1-pyrrolidinyl]pentyl]pyrido[2',3':4,5]thieno[3,2-d]pyrimidine-2,4(1H,3H)-dione, Dihydrochloride]	2.11	0.18	2.13	4.86

— US6133275A, “3-phenylpyrrolidine alpha-1 adrenergic compounds” (Abbott Laboratories, priority 1998, dated 2000)
